The NIST ThermoML archive (doi:10.1016/j.jct.2013.01.013)
Numbers after ± are expanded uncertainties.

Experiment: xn = mol fraction of the nth substance listed
Conditions: 101 kPa, Liquid; for viscosity: Capillary tube (Ostwald / Ubbelohde) method; for speed of sound: Linear variable-path acoustic interferometer; for mass density: Pycnometric method

C=C(C)C(=O)OC [methyl methacrylate] + CN(C)C=O
Conditions | mass density [kg/m3] | speed of sound [m/s] | viscosity [mPa·s]
288.15 K, x1 = 0.0696 | 953.35 ± 0.29 | 1484.1 ± 1.6 | 0.905 ± 0.0078
288.15 K, x1 = 0.1417 | 953.07 ± 0.29 | 1464.4 ± 1.6 | 0.868 ± 0.0075
288.15 K, x1 = 0.211 | 952.8 ± 0.29 | 1445.5 ± 1.6 | 0.8355 ± 0.0072
288.15 K, x1 = 0.2855 | 952.5 ± 0.28 | 1425.2 ± 1.6 | 0.8041 ± 0.007
288.15 K, x1 = 0.3573 | 952.22 ± 0.28 | 1405.4 ± 1.6 | 0.7765 ± 0.0067
288.15 K, x1 = 0.4308 | 951.91 ± 0.28 | 1384.8 ± 1.6 | 0.7513 ± 0.0065
288.15 K, x1 = 0.5042 | 951.58 ± 0.27 | 1363.9 ± 1.5 | 0.729 ± 0.0064
288.15 K, x1 = 0.578 | 951.23 ± 0.27 | 1342.6 ± 1.5 | 0.7083 ± 0.0062
288.15 K, x1 = 0.6552 | 950.86 ± 0.27 | 1320 ± 1.5 | 0.6885 ± 0.006
288.15 K, x1 = 0.7204 | 950.53 ± 0.27 | 1300.7 ± 1.5 | 0.6742 ± 0.0059
288.15 K, x1 = 0.7873 | 950.19 ± 0.26 | 1280.7 ± 1.5 | 0.6612 ± 0.0058
288.15 K, x1 = 0.8548 | 949.84 ± 0.26 | 1260.4 ± 1.4 | 0.6505 ± 0.0057
288.15 K, x1 = 0.9268 | 949.47 ± 0.26 | 1238.7 ± 1.4 | 0.6417 ± 0.0056
288.15 K, x1 = 1 | 949.1 ± 0.26 | 1216.8 ± 1.4 | 0.634 ± 0.0056
293.15 K, x1 = 0.0696 | 948.76 ± 0.28 | 1466.8 ± 1.6 | 0.834 ± 0.0072
293.15 K, x1 = 0.1417 | 948.39 ± 0.28 | 1447.2 ± 1.6 | 0.8009 ± 0.007
293.15 K, x1 = 0.211 | 948.03 ± 0.27 | 1428.4 ± 1.6 | 0.7713 ± 0.0067
293.15 K, x1 = 0.2855 | 947.64 ± 0.27 | 1408.2 ± 1.6 | 0.742 ± 0.0065
293.15 K, x1 = 0.3573 | 947.25 ± 0.27 | 1388.5 ± 1.6 | 0.717 ± 0.0063
293.15 K, x1 = 0.4308 | 946.85 ± 0.26 | 1368 ± 1.5 | 0.6941 ± 0.0061
293.15 K, x1 = 0.5042 | 946.43 ± 0.26 | 1347.2 ± 1.5 | 0.6736 ± 0.0059
293.15 K, x1 = 0.578 | 946 ± 0.26 | 1326 ± 1.5 | 0.6552 ± 0.0058
293.15 K, x1 = 0.6552 | 945.53 ± 0.26 | 1303.5 ± 1.5 | 0.6382 ± 0.0057
293.15 K, x1 = 0.7204 | 945.13 ± 0.25 | 1284.3 ± 1.5 | 0.6261 ± 0.0056
293.15 K, x1 = 0.7873 | 944.72 ± 0.25 | 1264.4 ± 1.4 | 0.6149 ± 0.0055
293.15 K, x1 = 0.8548 | 944.29 ± 0.25 | 1244.1 ± 1.4 | 0.6055 ± 0.0054
293.15 K, x1 = 0.9268 | 943.83 ± 0.25 | 1222.5 ± 1.4 | 0.598 ± 0.0053
293.15 K, x1 = 1 | 943.37 ± 0.25 | 1200.5 ± 1.4 | 0.5903 ± 0.0053
298.15 K, x1 = 0.0696 | 944.17 ± 0.29 | 1450 ± 1.6 | 0.7818 ± 0.0068
298.15 K, x1 = 0.1417 | 943.71 ± 0.29 | 1430.6 ± 1.6 | 0.7509 ± 0.0066
298.15 K, x1 = 0.211 | 943.26 ± 0.28 | 1411.8 ± 1.6 | 0.7233 ± 0.0064
298.15 K, x1 = 0.2855 | 942.77 ± 0.28 | 1391.5 ± 1.6 | 0.6958 ± 0.0062
298.15 K, x1 = 0.3573 | 942.29 ± 0.28 | 1371.8 ± 1.5 | 0.672 ± 0.006
298.15 K, x1 = 0.4308 | 941.79 ± 0.27 | 1351.3 ± 1.5 | 0.651 ± 0.0058
298.15 K, x1 = 0.5042 | 941.28 ± 0.27 | 1330.4 ± 1.5 | 0.632 ± 0.0056
298.15 K, x1 = 0.578 | 940.76 ± 0.27 | 1309.2 ± 1.5 | 0.6151 ± 0.0055
298.15 K, x1 = 0.6552 | 940.21 ± 0.27 | 1286.7 ± 1.5 | 0.6 ± 0.0054
298.15 K, x1 = 0.7204 | 939.73 ± 0.26 | 1267.4 ± 1.4 | 0.5885 ± 0.0053
298.15 K, x1 = 0.7873 | 939.24 ± 0.26 | 1247.4 ± 1.4 | 0.5786 ± 0.0052
298.15 K, x1 = 0.8548 | 938.74 ± 0.26 | 1227.1 ± 1.4 | 0.57 ± 0.0051
298.15 K, x1 = 0.9268 | 938.19 ± 0.26 | 1205.3 ± 1.4 | 0.5625 ± 0.0051
298.15 K, x1 = 1 | 937.63 ± 0.25 | 1183.6 ± 1.4 | 0.5544 ± 0.005
303.15 K, x1 = 0.0696 | 939.58 ± 0.3 | 1430.3 ± 1.6 | 0.737 ± 0.0065
303.15 K, x1 = 0.1417 | 939.03 ± 0.29 | 1411.3 ± 1.6 | 0.7088 ± 0.0063
303.15 K, x1 = 0.211 | 938.49 ± 0.29 | 1393 ± 1.6 | 0.683 ± 0.0061
303.15 K, x1 = 0.2855 | 937.9 ± 0.29 | 1373.1 ± 1.6 | 0.6568 ± 0.0059
303.15 K, x1 = 0.3573 | 937.33 ± 0.29 | 1353.7 ± 1.5 | 0.6346 ± 0.0057
303.15 K, x1 = 0.4308 | 936.73 ± 0.28 | 1333.6 ± 1.5 | 0.6148 ± 0.0055
303.15 K, x1 = 0.5042 | 936.13 ± 0.28 | 1313.1 ± 1.5 | 0.5972 ± 0.0054
303.15 K, x1 = 0.578 | 935.52 ± 0.28 | 1292.3 ± 1.5 | 0.5817 ± 0.0053
303.15 K, x1 = 0.6552 | 934.88 ± 0.28 | 1270.3 ± 1.5 | 0.5675 ± 0.0051
303.15 K, x1 = 0.7204 | 934.33 ± 0.27 | 1251.4 ± 1.4 | 0.5575 ± 0.0051
303.15 K, x1 = 0.7873 | 933.76 ± 0.27 | 1231.8 ± 1.4 | 0.5486 ± 0.005
303.15 K, x1 = 0.8548 | 933.19 ± 0.27 | 1211.8 ± 1.4 | 0.5408 ± 0.0049
303.15 K, x1 = 0.9268 | 932.55 ± 0.27 | 1190.4 ± 1.4 | 0.5331 ± 0.0048
303.15 K, x1 = 1 | 931.89 ± 0.26 | 1168.5 ± 1.4 | 0.5251 ± 0.0048
308.15 K, x1 = 0.0696 | 934.99 ± 0.31 | 1411 ± 1.6 | 0.694 ± 0.0062
308.15 K, x1 = 0.1417 | 934.35 ± 0.3 | 1392.3 ± 1.6 | 0.6678 ± 0.006
308.15 K, x1 = 0.211 | 933.72 ± 0.3 | 1374.3 ± 1.6 | 0.6435 ± 0.0058
308.15 K, x1 = 0.2855 | 933.03 ± 0.3 | 1354.7 ± 1.5 | 0.6191 ± 0.0056
308.15 K, x1 = 0.3573 | 932.36 ± 0.3 | 1335.6 ± 1.5 | 0.5978 ± 0.0054
308.15 K, x1 = 0.4308 | 931.67 ± 0.29 | 1315.7 ± 1.5 | 0.5793 ± 0.0053
308.15 K, x1 = 0.5042 | 930.98 ± 0.29 | 1295.5 ± 1.5 | 0.563 ± 0.0051
308.15 K, x1 = 0.578 | 930.28 ± 0.29 | 1275 ± 1.5 | 0.5488 ± 0.005
308.15 K, x1 = 0.6552 | 929.55 ± 0.28 | 1253.3 ± 1.4 | 0.5358 ± 0.0049
308.15 K, x1 = 0.7204 | 928.93 ± 0.28 | 1234.7 ± 1.4 | 0.5268 ± 0.0048
308.15 K, x1 = 0.7873 | 928.28 ± 0.28 | 1215.4 ± 1.4 | 0.5188 ± 0.0048
308.15 K, x1 = 0.8548 | 927.63 ± 0.28 | 1195.7 ± 1.4 | 0.5113 ± 0.0047
308.15 K, x1 = 0.9268 | 926.91 ± 0.28 | 1174.4 ± 1.4 | 0.5038 ± 0.0046
308.15 K, x1 = 1 | 926.15 ± 0.27 | 1152.6 ± 1.3 | 0.496 ± 0.0046
313.15 K, x1 = 0.0696 | 930.4 ± 0.32 | 1393.7 ± 1.6 | 0.662 ± 0.0059
313.15 K, x1 = 0.1417 | 929.67 ± 0.31 | 1375.1 ± 1.6 | 0.6373 ± 0.0057
313.15 K, x1 = 0.211 | 928.95 ± 0.31 | 1357.1 ± 1.5 | 0.6142 ± 0.0056
313.15 K, x1 = 0.2855 | 928.16 ± 0.31 | 1337.5 ± 1.5 | 0.5913 ± 0.0054
313.15 K, x1 = 0.3573 | 927.4 ± 0.31 | 1318.4 ± 1.5 | 0.5713 ± 0.0052
313.15 K, x1 = 0.4308 | 926.61 ± 0.3 | 1298.4 ± 1.5 | 0.5529 ± 0.0051
313.15 K, x1 = 0.5042 | 925.83 ± 0.3 | 1278.3 ± 1.5 | 0.5375 ± 0.0049
313.15 K, x1 = 0.578 | 925.04 ± 0.3 | 1257.9 ± 1.4 | 0.5237 ± 0.0048
313.15 K, x1 = 0.6552 | 924.22 ± 0.29 | 1236.2 ± 1.4 | 0.5115 ± 0.0047
313.15 K, x1 = 0.7204 | 923.53 ± 0.29 | 1217.7 ± 1.4 | 0.503 ± 0.0047
313.15 K, x1 = 0.7873 | 922.81 ± 0.29 | 1198.4 ± 1.4 | 0.4951 ± 0.0046
313.15 K, x1 = 0.8548 | 922.07 ± 0.29 | 1178.7 ± 1.4 | 0.4875 ± 0.0045
313.15 K, x1 = 0.9268 | 921.26 ± 0.29 | 1157.4 ± 1.4 | 0.4796 ± 0.0045
313.15 K, x1 = 1 | 920.41 ± 0.28 | 1135.4 ± 1.3 | 0.4723 ± 0.0044
318.15 K, x1 = 0.0696 | 925.81 ± 0.33 | 1375.2 ± 1.6 | 0.6419 ± 0.0058
318.15 K, x1 = 0.1417 | 924.99 ± 0.32 | 1356.8 ± 1.6 | 0.6179 ± 0.0056
318.15 K, x1 = 0.211 | 924.18 ± 0.32 | 1338.9 ± 1.5 | 0.5953 ± 0.0054
318.15 K, x1 = 0.2855 | 923.29 ± 0.32 | 1319.4 ± 1.5 | 0.5728 ± 0.0052
318.15 K, x1 = 0.3573 | 922.44 ± 0.31 | 1300.3 ± 1.5 | 0.553 ± 0.0051
318.15 K, x1 = 0.4308 | 921.55 ± 0.31 | 1280.5 ± 1.5 | 0.5345 ± 0.0049
318.15 K, x1 = 0.5042 | 920.68 ± 0.31 | 1260.5 ± 1.5 | 0.5185 ± 0.0048
318.15 K, x1 = 0.578 | 919.8 ± 0.31 | 1240.2 ± 1.4 | 0.5045 ± 0.0047
318.15 K, x1 = 0.6552 | 918.89 ± 0.3 | 1218.7 ± 1.4 | 0.4925 ± 0.0046
318.15 K, x1 = 0.7204 | 918.12 ± 0.3 | 1200.3 ± 1.4 | 0.4837 ± 0.0045
318.15 K, x1 = 0.7873 | 917.33 ± 0.3 | 1181.2 ± 1.4 | 0.475 ± 0.0044
318.15 K, x1 = 0.8548 | 916.51 ± 0.3 | 1161.6 ± 1.4 | 0.467 ± 0.0044
318.15 K, x1 = 0.9268 | 915.61 ± 0.29 | 1140.4 ± 1.3 | 0.4583 ± 0.0043
318.15 K, x1 = 1 | 914.66 ± 0.29 | 1118.3 ± 1.3 | 0.4499 ± 0.0042
